# Data reported in patent US9469650B2, “Melampomagnolide B derivatives” (BOARD OF TRUSTEES OF THE UNIVERSITY OF ARKANSAS, priority 2013, dated 2016).
# What was measured:
# [1] = test system: NCI-H522; assay: panel of 60 human tumor cell lines, growth inhibition (Non-Small Cell Lung Cancer)
# [2] = test system: HCC-2998; assay: panel of 60 human tumor cell lines, growth inhibition (Colon Cancer); conditions: for Percent Growth: HCC-2998
# [3] = test system: SF-268; assay: panel of 60 human tumor cell lines, growth inhibition (CNS Cancer)
# [4] = test system: SN12C; assay: panel of 60 human tumor cell lines, growth inhibition (Renal Cancer)
# [5] = test system: SF-295; assay: panel of 60 human tumor cell lines, growth inhibition (CNS Cancer)
# [6] = test system: OVCAR-5; assay: panel of 60 human tumor cell lines, growth inhibition (Ovarian Cancer)
# [7] = test system: SNB-19; assay: panel of 60 human tumor cell lines, growth inhibition (CNS Cancer)
# [8] = test system: SW-620; assay: panel of 60 human tumor cell lines, growth inhibition (Colon Cancer); conditions: for Percent Growth: SW-620
# [9] = test system: A498; assay: panel of 60 human tumor cell lines, growth inhibition (Renal Cancer)
# [10] = test system: HOP-62; assay: panel of 60 human tumor cell lines, growth inhibition (Non-Small Cell Lung Cancer); conditions: HOP-62
compound,measurement,setting,value
C=C1C(=O)O[C@H]2[C@H]1CC/C(COC(=O)CCC(=O)NCc1ccc(Cl)nc1)=C\CC[C@@]1(C)O[C@@H]21 [JVM 96],GI50,"[1]; Homo sapiens, NCI-H522",1.6 µM
same,CC50,"[1]; Homo sapiens, NCI-H522, read-out: LC50",7.82 µM
same,IC (TGI),"[1]; Homo sapiens, NCI-H522, read-out: TGI",3.54 µM
same,Percent Growth,"[1]; NCI-H522, Log10 Concentration −4.0",−78%
same,Percent Growth,"[1]; NCI-H522, Log10 Concentration −5.0",−66%
same,Percent Growth,"[1]; NCI-H522, Log10 Concentration −6.0",80%
same,Percent Growth,"[1]; NCI-H522, Log10 Concentration −7.0",102%
same,Percent Growth,"[1]; NCI-H522, Log10 Concentration −8.0",101%
same,Percent Growth,[2]; Log10 Concentration −4.0,−90%
same,Percent Growth,[2]; Log10 Concentration −5.0,76%
same,Percent Growth,[2]; Log10 Concentration −6.0,108%
same,Percent Growth,[2]; Log10 Concentration −7.0,101%
same,Percent Growth,[2]; Log10 Concentration −8.0,99%
same,GI50,"[2]; Homo sapiens, HCC 2998",14.4 µM
same,CC50,"[2]; Homo sapiens, HCC 2998, read-out: LC50",57.3 µM
same,IC (TGI),"[2]; Homo sapiens, HCC 2998, read-out: TGI",28.7 µM
same,GI50,"[3]; Homo sapiens, SF-268",10.5 µM
same,CC50,"[3]; Homo sapiens, SF-268, read-out: LC50",67.6 µM
same,IC (TGI),"[3]; Homo sapiens, SF-268, read-out: TGI",26.7 µM
same,Percent Growth,"[3]; SF-268, Log10 Concentration −4.0",−71%
same,Percent Growth,"[3]; SF-268, Log10 Concentration −5.0",52%
same,Percent Growth,"[3]; SF-268, Log10 Concentration −6.0",97%
same,Percent Growth,"[3]; SF-268, Log10 Concentration −7.0",98%
same,Percent Growth,"[3]; SF-268, Log10 Concentration −8.0",97%
same,GI50,[4]; Homo sapiens,12.5 µM
same,CC50,"[4]; Homo sapiens, read-out: LC50",> 100 µM
same,IC (TGI),"[4]; Homo sapiens, read-out: TGI",40.4 µM
same,Percent Growth,[4]; Log10 Concentration −4.0,−39%
same,Percent Growth,[4]; Log10 Concentration −5.0,59%
same,Percent Growth,[4]; Log10 Concentration −6.0,95%
same,Percent Growth,[4]; Log10 Concentration −7.0,100%
same,Percent Growth,[4]; Log10 Concentration −8.0,97%
same,GI50,"[5]; Homo sapiens, SF-295",16.6 µM
same,CC50,"[5]; Homo sapiens, SF-295, read-out: LC50",84.2 µM
same,IC (TGI),"[5]; Homo sapiens, SF-295, read-out: TGI",37.4 µM
same,Percent Growth,"[5]; SF-295, Log10 Concentration −4.0",−61%
same,Percent Growth,"[5]; SF-295, Log10 Concentration −5.0",81%
same,Percent Growth,"[5]; SF-295, Log10 Concentration −6.0",96%
same,Percent Growth,"[5]; SF-295, Log10 Concentration −7.0",91%
same,Percent Growth,"[5]; SF-295, Log10 Concentration −8.0",93%
same,GI50,"[6]; Homo sapiens, OVCAR-5",12.1 µM
same,CC50,"[6]; Homo sapiens, OVCAR-5, read-out: LC50",60.5 µM
same,IC (TGI),"[6]; Homo sapiens, OVCAR-5, read-out: TGI",27.1 µM
same,Percent Growth,"[6]; OVCAR-5, Log10 Concentration −4.0",−81%
same,Percent Growth,"[6]; OVCAR-5, Log10 Concentration −5.0",62%
same,Percent Growth,"[6]; OVCAR-5, Log10 Concentration −6.0",89%
same,Percent Growth,"[6]; OVCAR-5, Log10 Concentration −7.0",84%
same,Percent Growth,"[6]; OVCAR-5, Log10 Concentration −8.0",93%
same,GI50,"[7]; Homo sapiens, SNB-19",15.6 µM
same,CC50,"[7]; Homo sapiens, SNB-19, read-out: LC50",> 100 µM
same,IC (TGI),"[7]; Homo sapiens, SNB-19, read-out: TGI",42.3 µM
same,Percent Growth,"[7]; SNB-19, Log10 Concentration −4.0",−43%
same,Percent Growth,"[7]; SNB-19, Log10 Concentration −5.0",72%
same,Percent Growth,"[7]; SNB-19, Log10 Concentration −6.0",88%
same,Percent Growth,"[7]; SNB-19, Log10 Concentration −7.0",96%
same,Percent Growth,"[7]; SNB-19, Log10 Concentration −8.0",93%
same,GI50,"[8]; Homo sapiens, SW-620, SW-620",4.35 µM
same,CC50,"[8]; Homo sapiens, SW-620, read-out: LC50",64.9 µM
same,IC (TGI),"[8]; Homo sapiens, SW-620, read-out: TGI",17.8 µM
same,Percent Growth,[8]; Log10 Concentration −4.0,−67%
same,Percent Growth,[8]; Log10 Concentration −5.0,22%
same,Percent Growth,[8]; Log10 Concentration −6.0,99%
same,Percent Growth,[8]; Log10 Concentration −7.0,99%
same,Percent Growth,[8]; Log10 Concentration −8.0,99%
same,Percent Growth,"[9]; A498, Log10 Concentration −4.0",−95%
same,Percent Growth,"[9]; A498, Log10 Concentration −5.0",74%
same,Percent Growth,"[9]; A498, Log10 Concentration −6.0",95%
same,Percent Growth,"[9]; A498, Log10 Concentration −7.0",107%
same,Percent Growth,"[9]; A498, Log10 Concentration −8.0",96%
same,GI50,"[9]; Homo sapiens, A498",13.9 µM
same,CC50,"[9]; Homo sapiens, A498, read-out: LC50",54.2 µM
same,IC (TGI),"[9]; Homo sapiens, A498, read-out: TGI",27.5 µM
same,Percent Growth,[10]; Log10 Concentration −4.0,−53%
same,Percent Growth,[10]; Log10 Concentration −5.0,95%
same,Percent Growth,[10]; Log10 Concentration −6.0,98%
same,Percent Growth,[10]; Log10 Concentration −7.0,93%
